Experimental data taken from patent publication US5854216A, “Marker for growth hormone-releasing factor receptors” (Universite de Montreal, priority 1996, dated 1998).
Square brackets hold non-standard residues; d marks the D form. Peptide text beside a SMILES is read from it. Phe(4-NO2) = N[C@@H](Cc1ccc([N+](=O)[O-])cc1)C(=O)O; Bpa = N[C@@H](Cc1ccc(C(=O)c2ccccc2)cc1)C(=O)O; Nle = CCCC[C@H](N)C(=O)O

Biological target: T1, GRF receptors ([^125 I-Tyr^10 ]hGRF(1-44)NH2 binding sites in rat adenopituitary) (Rattus norvegicus, UniProt Q02644)
T1 construct: from tissue; host or cells: rat anterior pituitary homogenate
T1 sequence (Q02644 23-423 isoform Q02644-2 limits assumed): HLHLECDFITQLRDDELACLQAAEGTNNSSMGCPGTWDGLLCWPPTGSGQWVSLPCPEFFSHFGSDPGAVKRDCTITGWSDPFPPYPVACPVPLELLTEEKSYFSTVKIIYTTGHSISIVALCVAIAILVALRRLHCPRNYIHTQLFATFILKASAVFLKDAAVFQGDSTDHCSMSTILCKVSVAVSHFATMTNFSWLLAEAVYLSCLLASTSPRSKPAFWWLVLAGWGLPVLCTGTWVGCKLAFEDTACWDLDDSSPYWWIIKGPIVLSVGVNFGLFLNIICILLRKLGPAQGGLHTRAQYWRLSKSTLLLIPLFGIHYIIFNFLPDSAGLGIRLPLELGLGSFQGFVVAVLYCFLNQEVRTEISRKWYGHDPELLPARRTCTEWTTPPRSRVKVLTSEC
Test: Competitive binding assay with [^125 I-Tyr^10 ]hGRF(1-44)NH2 on anterior pituitary homogenates
Details: for Relative affinity: ratio IC50 of hGRF(1-29)NH2 /IC50 analogue
Experimental: The binding of [^125 I-Tyr^10 ]hGRF(1-44)NH2 was performed on anterior pituitary homogenates as previously described (Gaudreau P. et al., J. Biol. Chem., 1992, 35:1864-1869). Briefly, anterior pituitaries (pit.) were dissected out, rinsed and homogenized for 8 sec with a Micro Ultrasonic Cell Disrupter™, in ice-cold 50 mM Tris-HCl buffer, pH 7.4, containing 5 mM MgCl2 and 5 mM EDTA (1 pit./0.5 ml). These homogenates were used immediately. Competition studies were performed using 35-50 pM [^125 I-Tyr^10 ]hGRF(1-44)NH2 as radio-ligand,50 μl of homogenate (70 to 75 μg of protein), and increasing concentrations of Nε-CF-[Lys^31 ]hGRF or other GRF analogues (0-1000 nM) or with 2.4 μM rGRF(1-29)NH2 for determination of non-specific binding, in a total volume of 300 μl of Tris-HCl buffer, pH 7.4, containing 5 mM EDTA, 5 mM MgCl2 and 0.42% BSA. Incubations were carried out at 23° C. for 60 min and stopped by centrifugation (12,000 g, 5 min, at 4° C.). The radioactivity content in the pellet was measured by gamma counting. The affinity of hGRF(1-29)NH2 was tested in each experiment to assess the validity of the assay and determine the relative affinity of the analogues. […] The Hill values indicate that all these peptides bind to the high and low affinity GRF binding sites found in the anterior pituitary.

[1] = Table 11, mean±SD of 2 or mean±SE of 3 experiments for analogues, mean±SE of 11 for hGRF(1-29)NH2

CC[C@H](C)[C@H](NC(=O)[C@H](C)NC(=O)[C@H](CC(=O)O)NC(=O)[C@H](C)NC(=O)[C@@H](N)Cc1ccc(O)cc1)C(=O)N[C@@H](Cc1ccccc1)C(=O)N[C@H](C(=O)N[C@@H](CC(N)=O)C(=O)N[C@@H](CO)C(=O)N[C@@H](Cc1ccc(O)cc1)C(=O)N[C@@H](CCCNC(=N)N)C(=O)N[C@@H](CCCCN)C(=O)N[C@H](C(=O)N[C@@H](CC(C)C)C(=O)NCC(=O)N[C@@H](CCC(N)=O)C(=O)N[C@@H](CC(C)C)C(=O)N[C@@H](CO)C(=O)N[C@@H](C)C(=O)N[C@@H](CCCNC(=N)N)C(=O)N[C@@H](CCCCN)C(=O)N[C@@H](CC(C)C)C(=O)N[C@@H](CC(C)C)C(=O)N[C@@H](CCC(N)=O)C(=O)N[C@@H](CC(=O)O)C(=O)N[C@H](C(=O)N[C@@H](CCSC)C(=O)N[C@@H](CO)C(=O)N[C@@H](CCCNC(=N)N)C(=O)NCCCCCCCC(=O)N[C@@H](CS)C(N)=O)[C@@H](C)CC)C(C)C)[C@@H](C)O [Octanoyl^30, Cys^31, [octanoyl^30,Cys^31] hGRF(1-29)NH2]
IC50 [1]: 6.84 ± 2.12 nM

CCCC[C@H](NC(=O)[C@@H](NC(=O)[C@H](CC(=O)O)NC(=O)[C@H](CCC(N)=O)NC(=O)[C@H](CC(C)C)NC(=O)[C@H](CC(C)C)NC(=O)[C@H](CCCCN)NC(=O)[C@H](CCCNC(=N)N)NC(=O)[C@H](C)NC(=O)[C@H](CO)NC(=O)[C@H](CC(C)C)NC(=O)[C@H](CCC(N)=O)NC(=O)CNC(=O)[C@H](CC(C)C)NC(=O)[C@@H](NC(=O)[C@H](CCCCN)NC(=O)[C@H](CCCNC(=N)N)NC(=O)[C@H](Cc1ccc(O)cc1)NC(=O)[C@H](Cc1ccc(C(=O)c2ccccc2)cc1)NC(=O)[C@H](CC(N)=O)NC(=O)[C@@H](NC(=O)[C@H](Cc1ccccc1)NC(=O)[C@@H](NC(=O)[C@H](C)NC(=O)[C@H](CC(=O)O)NC(=O)[C@H](C)NC(=O)[C@@H](N)Cc1c[nH]cn1)[C@@H](C)CC)[C@@H](C)O)C(C)C)[C@@H](C)CC)C(=O)N[C@@H](CO)C(=O)N[C@@H](CCCNC(=N)N)C(N)=O [His^1, bpa^9, Nle^27] (H-HADAIFTN[Bpa]YRKVLGQLSARKLLQDI[Nle]SR-NH2)
Hill coef. (Table 7): 0.70 ± 0.06
Relative affinity (Table 7): 61.0 ± 7%

CC[C@H](C)[C@H](NC(=O)[C@H](C)NC(=O)[C@H](CC(=O)O)NC(=O)[C@@H](C)NC(=O)[C@@H](N)Cc1ccc(O)cc1)C(=O)N[C@@H](Cc1ccccc1)C(=O)N[C@H](C(=O)N[C@@H](CC(N)=O)C(=O)N[C@@H](CO)C(=O)N[C@H](Cc1ccc(O)cc1)C(=O)N[C@@H](CCCNC(=N)N)C(=O)N[C@@H](CCCCN)C(=O)N[C@H](C(=O)N[C@@H](CC(C)C)C(=O)NCC(=O)N[C@@H](CCC(N)=O)C(=O)N[C@@H](CC(C)C)C(=O)N[C@@H](CO)C(=O)N[C@@H](C)C(=O)N[C@@H](CCCNC(=N)N)C(=O)N[C@@H](CCCCN)C(=O)N[C@@H](CCCCN)C(=O)N[C@@H](CC(C)C)C(=O)N[C@@H](CCC(N)=O)C(=O)N[C@@H](CC(=O)O)C(=O)N[C@H](C(=O)N[C@@H](CCSC)C(=O)N[C@@H](CO)C(=O)N[C@@H](CCCNC(=N)N)C(N)=O)[C@@H](C)CC)C(C)C)[C@@H](C)O [D-Ala^2, D-Tyr^10, Lys^22] (H-Y[dA]DAIFTNS[dY]RKVLGQLSARKKLQDIMSR-NH2)
IC50 [1]: 0.49 ± 0.27 nM

CC[C@H](C)[C@H](NC(=O)[C@H](C)NC(=O)[C@H](CC(=O)O)NC(=O)[C@H](C)NC(=O)[C@H](Cc1ccc(O)cc1)NC(=O)[C@@H](N)Cc1ccc([N+](=O)[O-])cc1)C(=O)N[C@@H](Cc1ccccc1)C(=O)N[C@H](C(=O)N[C@@H](CC(N)=O)C(=O)N[C@@H](CO)C(=O)N[C@@H](Cc1ccc(O)cc1)C(=O)N[C@@H](CCCNC(=N)N)C(=O)N[C@@H](CCCCN)C(=O)N[C@H](C(=O)N[C@@H](CC(C)C)C(=O)NCC(=O)N[C@@H](CCC(N)=O)C(=O)N[C@@H](CC(C)C)C(=O)N[C@@H](CO)C(=O)N[C@@H](C)C(=O)N[C@@H](CCCNC(=N)N)C(=O)N[C@@H](CCCCN)C(=O)N[C@@H](CC(C)C)C(=O)N[C@@H](CC(C)C)C(=O)N[C@@H](CCC(N)=O)C(=O)N[C@@H](CC(=O)O)C(=O)N[C@H](C(=O)N[C@@H](CCSC)C(=O)N[C@@H](CO)C(=O)N[C@@H](CCCNC(=N)N)C(N)=O)[C@@H](C)CC)C(C)C)[C@@H](C)O [npa0]
Hill coef. (Table 7): 0.63 ± 0.09
IC50 (Table 7, mean±SD of 2 or mean±SE of 3-6 experiments for analogues, mean±SE of 29 for hGRF(1-29)NH2): 18.3 ± 5.9 nM
Relative affinity (Table 7): 14 ± 5%

CC[C@H](C)[C@H](NC(=O)[C@H](C)NC(=O)[C@H](CC(=O)O)NC(=O)[C@H](C)NC(=O)[C@H](Cc1ccc(O)cc1)NC(=S)Nc1ccc(-c2c3ccc(=O)cc-3oc3cc(O)ccc23)c(C(=O)O)c1)C(=O)N[C@@H](Cc1ccccc1)C(=O)N[C@H](C(=O)N[C@@H](CC(N)=O)C(=O)N[C@@H](CO)C(=O)N[C@@H](Cc1ccc(O)cc1)C(=O)N[C@@H](CCCNC(=N)N)C(=O)N[C@@H](CCCCN)C(=O)N[C@H](C(=O)N[C@@H](CC(C)C)C(=O)NCC(=O)N[C@@H](CCC(N)=O)C(=O)N[C@@H](CC(C)C)C(=O)N[C@@H](CO)C(=O)N[C@@H](C)C(=O)N[C@@H](CCCNC(=N)N)C(=O)N[C@@H](CCCCN)C(=O)N[C@@H](CC(C)C)C(=O)N[C@@H](CC(C)C)C(=O)N[C@@H](CCC(N)=O)C(=O)N[C@@H](CC(=O)O)C(=O)N[C@H](C(=O)N[C@@H](CCSC)C(=O)N[C@@H](CO)C(=O)N[C@@H](CCCNC(=N)N)C(N)=O)[C@@H](C)CC)C(C)C)[C@@H](C)O [[Nα-fluorescein-5-thiocarbamyl]hGRF(1-29)NH2]
Hill coef. (Table 4): 0.61 ± 0.05
Relative affinity (Table 4): 19 ± 11%

CC[C@H](C)[C@H](NC(=O)[C@H](C)NC(=O)[C@H](CC(=O)O)NC(=O)[C@H](C)NC(=O)[C@@H](N)Cc1ccc(O)cc1)C(=O)N[C@@H](Cc1ccccc1)C(=O)N[C@H](C(=O)N[C@@H](CC(N)=O)C(=O)N[C@@H](CO)C(=O)N[C@@H](Cc1ccc([N+](=O)[O-])cc1)C(=O)N[C@@H](CCCNC(=N)N)C(=O)N[C@@H](CCCCN)C(=O)N[C@H](C(=O)N[C@@H](CC(C)C)C(=O)NCC(=O)N[C@@H](CCC(N)=O)C(=O)N[C@@H](CC(C)C)C(=O)N[C@@H](CO)C(=O)N[C@@H](C)C(=O)N[C@@H](CCCNC(=N)N)C(=O)N[C@@H](CCCCN)C(=O)N[C@@H](CC(C)C)C(=O)N[C@@H](CC(C)C)C(=O)N[C@@H](CCC(N)=O)C(=O)N[C@@H](CC(=O)O)C(=O)N[C@H](C(=O)N[C@@H](CCSC)C(=O)N[C@@H](CO)C(=O)N[C@@H](CCCNC(=N)N)C(N)=O)[C@@H](C)CC)C(C)C)[C@@H](C)O [npa^10, [4'-nitro-phenylalanine^10]hGRF(1-29)NH2] (H-YADAIFTNS[Phe(4-NO2)]RKVLGQLSARKLLQDIMSR-NH2)
IC50 (in words): low nanomolar range

CC[C@H](C)[C@H](NC(=O)[C@H](C)NC(=O)[C@H](CC(=O)O)NC(=O)[C@@H](C)NC(=O)[C@@H](N)Cc1ccc(O)cc1)C(=O)N[C@@H](Cc1ccccc1)C(=O)N[C@H](C(=O)N[C@@H](C)C(=O)N[C@@H](CO)C(=O)N[C@@H](Cc1ccc(O)cc1)C(=O)N[C@@H](CCCNC(=N)N)C(=O)N[C@@H](CCCCN)C(=O)N[C@H](C(=O)N[C@@H](CC(C)C)C(=O)N[C@@H](C)C(=O)N[C@@H](CCC(N)=O)C(=O)N[C@@H](CC(C)C)C(=O)N[C@@H](CO)C(=O)N[C@@H](C)C(=O)N[C@@H](CCCNC(=N)N)C(=O)N[C@@H](CCCCN)C(=O)N[C@@H](CCCCN)C(=O)N[C@@H](CC(C)C)C(=O)N[C@@H](CCC(N)=O)C(=O)N[C@@H](CC(=O)O)C(=O)N[C@H](C(=O)N[C@@H](CCSC)C(=O)N[C@@H](CO)C(=O)N[C@@H](CCCNC(=N)N)C(N)=O)[C@@H](C)CC)C(C)C)[C@@H](C)O [D-Ala^2, Ala^8, Ala^15, Lys^22] (H-Y[dA]DAIFTASYRKVLAQLSARKKLQDIMSR-NH2; N-terminus assumed)
Hill coef. (Table 11): 0.53 ± 0.06
IC50 [1]: 0.18 ± 0.08 nM
Relative affinity (Table 11): 1333 ± 31%
